Results reported in the NIST ThermoML archive (doi:10.1021/je0601255).

Test: xn = mol fraction of the nth substance listed
Details: 101 kPa, Liquid; for viscosity: Capillary tube (Ostwald / Ubbelohde) method; for mass density: Pycnometric method

C=C(C)C(=O)O [2-methyl-2-propenoic acid] + CCCCO
Details	mass density, 288.15 K [kg/m3]	mass density, 298.15 K [kg/m3]	mass density, 308.15 K [kg/m3]	mass density, 318.15 K [kg/m3]	viscosity, 288.15 K [mPa·s]	viscosity, 298.15 K [mPa·s]	viscosity, 308.15 K [mPa·s]	viscosity, 318.15 K [mPa·s]
x2 = 0	1018.3	1009.5	999.4	989.2	1.447	1.267	1.078	0.945
x2 = 0.1	996.3	987.7	978	968.1	1.632	1.4	1.174	1.015
x2 = 0.2	974.7	966.5	957.4	948.1	1.818	1.534	1.275	1.09
x2 = 0.3	954.3	946.3	937.7	928.7	2.009	1.672	1.377	1.16
x2 = 0.4	934.2	926.6	918.1	909.3	2.2	1.81	1.476	1.227
x2 = 0.5	914.2	907	898.6	890.1	2.392	1.947	1.574	1.294
x2 = 0.6	894.2	887.4	879	870.6	2.576	2.079	1.667	1.355
x2 = 0.7	874.1	867.3	859.1	851	2.756	2.204	1.756	1.413
x2 = 0.8	853.7	847	839.2	831.4	2.935	2.329	1.842	1.466
x2 = 0.9	832.9	826.7	819.1	811.5	3.111	2.453	1.925	1.515

C=C(C)C(=O)OCc1ccccc1 [benzyl methacrylate] + CCCCO
Details	mass density, 288.15 K [kg/m3]	mass density, 298.15 K [kg/m3]	mass density, 308.15 K [kg/m3]	mass density, 318.15 K [kg/m3]	viscosity, 288.15 K [mPa·s]	viscosity, 298.15 K [mPa·s]	viscosity, 308.15 K [mPa·s]	viscosity, 318.15 K [mPa·s]
x2 = 0	1041.2	1034.7	1025.8	1017	2.871	2.302	1.885	1.58
x2 = 0.1	1027.8	1021.3	1012.5	1003.9	2.655	2.123	1.746	1.455
x2 = 0.2	1013.3	1006.8	998.1	989.5	2.519	2.021	1.656	1.388
x2 = 0.3	997.5	990.9	982.3	973.8	2.462	1.958	1.605	1.342
x2 = 0.4	979.9	973.3	964.8	956.4	2.41	1.919	1.568	1.308
x2 = 0.5	960.3	953.7	945.3	937	2.384	1.868	1.525	1.272
x2 = 0.6	938.3	931.6	923.4	915.2	2.375	1.834	1.505	1.247
x2 = 0.7	913.2	906.6	898.5	890.4	2.427	1.863	1.508	1.244
x2 = 0.8	884.5	877.9	869.9	862	2.51	1.982	1.59	1.302
x2 = 0.9	851.3	844.6	836.8	829.1	2.704	2.168	1.727	1.394
